We go through eleven molecules from PubChem BioAssay (NCI).

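Following 48 hours of exposure in 96-well plates, responses at five concentrations were used to interpolate endpoints linearly. GI50: concentration for 50% inhibition of growth. The concentration for full growth arrest is given as TGI.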

Among the test systems are SK-OV-3 ovarian; CAKI-1 renal; HOP-92 NSCLC; OVCAR-4 ovarian; SF-539 CNS; HL-60(TB) leukemia; LOX IMVI melanoma; KM12 colon; 786-0 renal; SR leukemia.
Common to all, as to assay: NCI tumour cell line growth inhibition, 48 h

Consider `OC(COc1ccc(F)cc1)Cn1cnc2c(Cl)ncnc21` (stereo not drawn), for which the GI50 in the assay with SK-OV-3 ovarian is greater than 100 µM; in the assay with CAKI-1 renal, 19.9 µM; in the assay with HOP-92 NSCLC it was greater than 100 µM; with OVCAR-4 ovarian, greater than 100 µM; in the assay with SF-539 CNS, greater than 100 µM; with HL-60(TB) leukemia, 36.3 µM. Further, the GI50 in the assay on LOX IMVI melanoma was 39.1 µM; with KM12 colon, greater than 100 µM; in the assay with 786-0 renal, greater than 100 µM. Moreover, the TGI with SK-OV-3 ovarian was greater than 100 µM; in the assay on CAKI-1 renal, 37.6 µM; in the assay on HOP-92 NSCLC, greater than 100 µM; with OVCAR-4 ovarian, greater than 100 µM; with SF-539 CNS, greater than 100 µM; in the assay with HL-60(TB) leukemia, greater than 100 µM. The TGI in the assay on LOX IMVI melanoma, in the assay with KM12 colon and in the assay on 786-0 renal was greater than 100 µM in each case.

In the case of `Cc1nccc2c3ccc(OCc4cn(-c5ccc(Cl)cc5)nn4)cc3n(CCCc3ccccc3)c12`, the GI50 in the assay on SK-OV-3 ovarian is greater than 33.3 µM; in the assay on HOP-92 NSCLC it was 4.98 µM; in the assay on OVCAR-4 ovarian, 4.34 µM; in the assay with SF-539 CNS it was 4.24 µM; in the assay on HL-60(TB) leukemia, 1.88 µM; with LOX IMVI melanoma it was 1.08 µM. Besides, the GI50 in the assay on KM12 colon is 6.21 µM; in the assay on 786-0 renal, 0.649 µM; in the assay on SR leukemia, 0.789 µM. In addition, the TGI was greater than 33.3 µM in the assay on SK-OV-3 ovarian; 21.3 µM in the assay with HOP-92 NSCLC; 10.4 µM in the assay with OVCAR-4 ovarian; 10.6 µM in the assay with SF-539 CNS; 8.37 µM in the assay with HL-60(TB) leukemia; 4.88 µM with LOX IMVI melanoma. Also, the TGI was greater than 33.3 µM in the assay on KM12 colon, 1.39 µM in the assay with 786-0 renal and 2.25 µM in the assay with SR leukemia.

Consider `CS(=O)(=O)Nc1cccc(-c2cc(-c3ccccc3Cl)c(C#N)c(N)n2)c1`, for which the GI50 with SK-OV-3 ovarian was 0.737 µM; in the assay with CAKI-1 renal, 0.502 µM; with HOP-92 NSCLC it was 1.11 µM; with OVCAR-4 ovarian it was 1.92 µM; with SF-539 CNS it was 0.361 µM; with HL-60(TB) leukemia it was 0.361 µM. The GI50 with LOX IMVI melanoma was 0.531 µM; in the assay with KM12 colon, 0.443 µM; in the assay on 786-0 renal it was 0.803 µM. For the same molecule, the TGI with SK-OV-3 ovarian worked out at 13.8 µM; in the assay on CAKI-1 renal, 24.4 µM; with HOP-92 NSCLC, 16 µM; in the assay on OVCAR-4 ovarian, 35.6 µM; with SF-539 CNS it was 2.72 µM; with HL-60(TB) leukemia, 13.4 µM. Besides, the TGI with LOX IMVI melanoma was 17.4 µM; in the assay with KM12 colon, 13.1 µM; with 786-0 renal, 14.4 µM.

Turning to `O=c1cc(-c2ccccc2)oc2cc(O)cc(O)c12`, the TGI with SK-OV-3 ovarian is 67 µM; in the assay with HOP-92 NSCLC, 38.7 µM; in the assay with OVCAR-4 ovarian, greater than 100 µM; in the assay on SF-539 CNS it was 31.3 µM; in the assay with HL-60(TB) leukemia it was 48.3 µM; in the assay on LOX IMVI melanoma it was 46.8 µM. Moreover, the TGI in the assay with KM12 colon turned out to be 39.6 µM; in the assay with 786-0 renal, 60.1 µM; in the assay on SR leukemia, 65.6 µM.

For the molecule `CCN(CC)c1ccc2c(c1)Oc1nc(N)c(C#N)c(N)c1C2Sc1ccc(OC)cc1` (stereo not drawn), the GI50 with SK-OV-3 ovarian is 1.92 µM; in the assay with HOP-92 NSCLC, 1.86 µM; in the assay with OVCAR-4 ovarian, 1.57 µM; in the assay with SF-539 CNS it was 1.64 µM; in the assay with HL-60(TB) leukemia it was 2.28 µM; in the assay on LOX IMVI melanoma it was 1.56 µM. Also, the results for the GI50 with KM12 colon, in the assay with 786-0 renal and in the assay on SR leukemia were 1.74 µM, 1.74 µM and 1.67 µM, respectively. Also, the TGI in the assay on SK-OV-3 ovarian was found to be 3.38 µM; with HOP-92 NSCLC, 3.37 µM; in the assay with OVCAR-4 ovarian it was 3.02 µM; in the assay on SF-539 CNS, 3.04 µM; in the assay with HL-60(TB) leukemia it was 6.44 µM; in the assay with LOX IMVI melanoma, 3.07 µM. For the same molecule, the TGI with KM12 colon came to 3.73 µM; with 786-0 renal, 3.22 µM; in the assay on SR leukemia, 4.78 µM.

`O=C(O)c1cc2ccccc2c(N=Nc2cc(C(F)(F)F)ccc2Cl)c1O`: the TGI in the assay on SK-OV-3 ovarian, in the assay on CAKI-1 renal, with HOP-92 NSCLC, in the assay with OVCAR-4 ovarian, in the assay with SF-539 CNS and in the assay with HL-60(TB) leukemia was greater than 100 µM each time. Further, the TGI in the assay on KM12 colon, in the assay on 786-0 renal and in the assay on SR leukemia was greater than 100 µM throughout.

For `O=C1c2ccccc2NC1(c1ccccc1)c1c(-c2ccccc2)[nH]c2ccccc12` (stereo not drawn), the TGI in the assay on SK-OV-3 ovarian is greater than 100 µM; with CAKI-1 renal it was greater than 100 µM; in the assay with HOP-92 NSCLC, greater than 100 µM; with OVCAR-4 ovarian, greater than 100 µM; in the assay on SF-539 CNS it was greater than 100 µM; in the assay on HL-60(TB) leukemia, 30.3 µM. The TGI in the assay on KM12 colon, in the assay with 786-0 renal and in the assay with SR leukemia was greater than 100 µM throughout.

As for `COC(=O)NC1(NC(=O)OC)NC(=O)c2cc(OC)c(OC)c(OC)c2N1`, the TGI is greater than 100 µM with SK-OV-3 ovarian; greater than 100 µM with CAKI-1 renal; greater than 100 µM in the assay with OVCAR-4 ovarian; greater than 100 µM in the assay with SF-539 CNS; 87.7 µM in the assay with HL-60(TB) leukemia; greater than 100 µM in the assay on KM12 colon. The TGI with 786-0 renal and in the assay on SR leukemia was greater than 100 µM in each case.

As to `CN(C)CCSc1cccc(-c2cc(-c3cccc(SCCN(C)C)c3)nc(SCCN(C)C)n2)c1`, the TGI in the assay on SK-OV-3 ovarian came out at 45.5 µM; in the assay on HOP-92 NSCLC, 6.87 µM; in the assay with OVCAR-4 ovarian, 3.04 µM; in the assay with SF-539 CNS, 3.19 µM; in the assay with HL-60(TB) leukemia, 3.67 µM; in the assay on LOX IMVI melanoma, 3.03 µM. The TGI worked out at 3.44 µM with KM12 colon, 20.9 µM with 786-0 renal and 4.49 µM in the assay with SR leukemia.

Turning to `Cc1nc(-c2ccccc2)cc2c1c(=O)oc1ccccc12`, the TGI with SK-OV-3 ovarian, in the assay on CAKI-1 renal, in the assay on HOP-92 NSCLC, with OVCAR-4 ovarian, in the assay with SF-539 CNS and in the assay on HL-60(TB) leukemia was greater than 100 µM each time. Moreover, the TGI with KM12 colon, in the assay on 786-0 renal and in the assay on SR leukemia was greater than 100 µM in each case.

For the molecule `CN1CCN(c2cc(C(=O)Nc3cc4cc(-c5cnn(C)c5)ccc4cn3)ccn2)CC1`, the GI50 in the assay on SK-OV-3 ovarian is 0.0631 µM; in the assay with HOP-92 NSCLC it was 0.16 µM; with OVCAR-4 ovarian, 0.151 µM; in the assay on SF-539 CNS it was 0.153 µM; in the assay with HL-60(TB) leukemia it was 0.119 µM; in the assay with LOX IMVI melanoma, 0.0933 µM. The GI50 in the assay with KM12 colon was 0.071 µM; with 786-0 renal, 0.3 µM; with SR leukemia, 0.0472 µM. In addition, the TGI in the assay on SK-OV-3 ovarian was 2.44 µM; with HOP-92 NSCLC, 3.6 µM; in the assay with OVCAR-4 ovarian it was 1.46 µM; with SF-539 CNS, 2.38 µM; in the assay on HL-60(TB) leukemia it was 7.91 µM; with LOX IMVI melanoma it was 0.262 µM. The TGI was 11.9 µM in the assay on KM12 colon, 10.4 µM in the assay on 786-0 renal and 13.6 µM in the assay on SR leukemia.
